The values that follow come from ChEMBL document CHEMBL4421722, “Inhibitors of protein prenyltransferases” (2013).

The species named for this assay is Rattus norvegicus. The assay can be described thus: Inhibition of rat recombinant geranylgeranyltransferase type I expressed in Escherichia coli assessed as residual enzyme activity for geranylgeranylation of K-Ras4B at 50 uM incubated for 30 mins in presence of [3H]GGPP by scintillation counting assay relative to control.
As for `Cc1ccc([C@@H]2CC=C(C(=O)O)[C@H](c3ccc(C(C)(C)C)cc3)N2S(C)(=O)=O)cc1`, the Activity is 78.2%.

Take `Cc1ccc([C@@H]2C[C@@H](SCc3ccccc3)[C@H](C(=O)O)CN2S(=O)(=O)c2ccc(C)cc2)cc1`: the Activity worked out at 93.1%.

Consider `COc1ccc([C@@H]2C[C@@H](SCc3ccccc3)[C@H](C(=O)O)CN2S(=O)(=O)c2ccc(C)cc2)cc1`, for which the Activity is 105%.

Turning to `CCCS[C@@H]1C[C@@H](c2cc(OC)c(OC)c(OC)c2)N(S(=O)(=O)c2ccc(C)cc2)C[C@H]1C(=O)O`, the Activity is 75%.

For the molecule `COc1ccc([C@@H]2C[C@@H](Sc3ccc(Cl)cc3)[C@H](C(=O)O)CN2S(=O)(=O)c2ccc(C)cc2)cc1`, the Activity is 55.3%.

As to `C=CCS[C@@H]1C[C@@H](c2ccc(Cl)cc2)N(S(=O)(=O)c2ccc(C)cc2)C[C@H]1C(=O)O`, the Activity was determined as 49.1%.

Consider `Cc1ccc(S(=O)(=O)N2[C@@H](c3cccc(Br)c3)C(C(=O)O)=CC[C@H]2c2ccc(C#N)cc2)cc1`, for which the Activity was determined as 93.5%.

On to `CCc1ccc([C@@H]2C[C@@H](SCc3ccccc3)[C@H](C(=O)O)CN2S(=O)(=O)c2ccc(C)cc2)cc1`, for which the Activity is 63.1%.

`Cc1ccc([C@@H]2CC=C(C(=O)O)[C@H](c3ccc(Br)cc3)N2S(=O)(=O)c2ccc(Cl)cc2)cc1`: the Activity was 69.5%.

Regarding `CCCCS[C@@H]1C[C@@H](c2ccccc2)N(S(=O)(=O)c2ccc(C)cc2)C[C@H]1C(=O)O`, the Activity came out at 93.4%.

Consider `Cc1ccc(S(=O)(=O)N2[C@@H](c3cccc(Cl)c3)C(C(=O)O)=CC[C@H]2c2ccc(F)cc2)cc1`, for which the Activity came to 66.7%.

With `Cc1ccc([C@H]2C(C(=O)O)=CC[C@@H](c3ccc(F)cc3)N2S(=O)(=O)c2ccc(C)cc2)cc1`, the Activity was 54.8%.

`C=CCS[C@@H]1C[C@@H](c2ccccc2F)N(S(=O)(=O)c2ccc(C)cc2)C[C@H]1C(=O)O`: the Activity was determined as 53.1%.

For `Cc1ccc(S(=O)(=O)N2C[C@@H](C(=O)O)[C@H](Sc3ccccc3)C[C@H]2c2ccc3c(c2)OCO3)cc1`, the Activity is 57.4%.

As to `Cc1ccc([C@H]2C(C(=O)O)=CC[C@@H](c3ccc4c(c3)OCO4)N2S(=O)(=O)c2ccc(C)cc2)cc1`, the Activity came to 75.7%.

On to `COc1ccc(S[C@@H]2C[C@@H](c3ccc(OC)cc3)N(S(=O)(=O)c3ccccc3C)C[C@H]2C(=O)O)cc1`, for which the Activity turned out to be 82.2%.

Consider `CCS[C@@H]1C[C@@H](c2ccc(CC)cc2)N(S(=O)(=O)c2ccc(C)cc2)C[C@H]1C(=O)O`, for which the Activity stood at 84.6%.

On to `CCS[C@@H]1C[C@@H](c2ccc(Cl)cc2)N(S(=O)(=O)c2ccc(C)cc2)C[C@H]1C(=O)O`, for which the Activity came to 87.8%.

As for `COC(=O)c1ccccc1S(=O)(=O)N1[C@@H](c2cccc(C)c2)C(C(=O)O)=CC[C@H]1c1ccc(C)cc1`, the Activity was found to be 54.2%.

`CCCCCCS[C@@H]1C[C@@H](c2ccc(OC)cc2)N(S(=O)(=O)c2ccc(C)cc2)C[C@H]1C(=O)O`: the Activity turned out to be 83.6%.

On to `COc1ccc([C@@H]2CC=C(C(=O)O)[C@H](c3ccc(Br)cc3)N2S(=O)(=O)c2ccc(Cl)cc2)cc1`, for which the Activity came to 76.2%.

In the case of `COc1ccc([C@@H]2CC=C(C(=O)O)[C@H](c3cccc(F)c3)N2S(=O)(=O)c2ccc(C)cc2)cc1OC`, the Activity amounted to 88.9%.

As for `COc1cc([C@@H]2C[C@@H](SCCC(C)C)[C@H](C(=O)O)CN2S(=O)(=O)c2ccc(C)cc2)cc(OC)c1OC`, the Activity stood at 106%.

For the molecule `Cc1ccc([C@@H]2CC=C(C(=O)O)[C@H](c3ccc(Cl)cc3)N2S(=O)(=O)c2ccc(Cl)cc2)cc1`, the Activity was 63.8%.

For `Cc1ccc([C@@H]2CC=C(C(=O)O)[C@H](c3cccc(Br)c3)N2S(=O)(=O)c2ccc(C)cc2)cc1`, the Activity was 75.6%.

In the case of `Cc1ccc(S(=O)(=O)N2[C@@H](c3ccc(Br)cc3)C(C(=O)O)=CC[C@H]2c2ccc(C#N)cc2)cc1`, the Activity turned out to be 70.6%.

Turning to `Cc1ccc(S(=O)(=O)N2[C@@H](c3cccc(F)c3)C(C(=O)O)=CC[C@H]2c2cccc(C)c2)cc1`, the Activity came to 75.6%.

As for `Cc1ccccc1S(=O)(=O)N1C[C@@H](C(=O)O)[C@H](SCC(C)C)C[C@H]1c1ccc(Cl)cc1`, the Activity worked out at 76.1%.

As to `CCCCCCS[C@@H]1C[C@@H](c2ccc(OC)cc2)N(S(=O)(=O)c2ccc(Cl)cc2)C[C@H]1C(=O)O`, the Activity came out at 68.3%.

Take `CCS[C@@H]1C[C@@H](c2ccc(C)cc2)N(S(C)(=O)=O)C[C@H]1C(=O)O`: the Activity came to 94.8%.

On to `Cc1ccc([C@@H]2C[C@@H](SCc3ccccc3)[C@H](C(=O)O)CN2S(C)(=O)=O)cc1`, for which the Activity was 81.8%.

Take `C=CCS[C@@H]1C[C@@H](c2ccc(OC)cc2)N(S(=O)(=O)c2ccccc2)C[C@H]1C(=O)O`: the Activity worked out at 106%.

For `Cc1ccc(S(=O)(=O)N2[C@@H](c3ccc(C(C)(C)C)cc3)C(C(=O)O)=CC[C@H]2c2ccc(Cl)cc2)cc1`, the Activity is 102%.

For `CCCS[C@@H]1C[C@@H](c2ccc(Cl)cc2)N(S(=O)(=O)c2ccc(C)cc2)C[C@H]1C(=O)O`, the Activity turned out to be 71%.

Take `Cc1ccc(S(=O)(=O)N2[C@@H](c3cccc(Cl)c3)C(C(=O)O)=CC[C@H]2c2cccs2)cc1`: the Activity was 79.5%.

For the molecule `CCCCCS[C@@H]1C[C@@H](c2ccc(OC)c(OC)c2)N(S(=O)(=O)c2ccc(C)cc2)C[C@H]1C(=O)O`, the Activity came out at 109%.

In the case of `COc1ccc(S[C@@H]2C[C@@H](c3ccc(C)cc3)N(S(=O)(=O)c3ccc(C)cc3)C[C@H]2C(=O)O)cc1`, the Activity came to 78.4%.

As for `Cc1ccc(S(=O)(=O)N2[C@@H](c3ccc(C(C)(C)C)cc3)C(C(=O)O)=CC[C@H]2c2cccc(C)c2)cc1`, the Activity was 56.1%.

For `CCS[C@@H]1C[C@@H](c2ccc(C)cc2)N(S(=O)(=O)c2ccc(C)cc2)C[C@H]1C(=O)O`, the Activity amounted to 90.1%.

On to `COc1ccc([C@@H]2C[C@@H](Sc3ccccc3)[C@H](C(=O)O)CN2S(=O)(=O)c2ccc(C)cc2)cc1`, for which the Activity amounted to 79.6%.

For `Cc1ccc([C@@H]2C[C@@H](SCc3ccc(Cl)cc3)[C@H](C(=O)O)CN2S(=O)(=O)c2ccc(C)cc2)cc1`, the Activity is 50.9%.

As to `CCCCS[C@@H]1C[C@@H](c2ccc(OC)cc2)N(S(=O)(=O)c2ccc(C)cc2)C[C@H]1C(=O)O`, the Activity amounted to 74.5%.

Turning to `Cc1ccc([C@@H]2C[C@@H](SCC(C)C)[C@H](C(=O)O)CN2S(C)(=O)=O)cc1`, the Activity was found to be 73.1%.

As for `COc1ccc([C@@H]2C[C@@H](SCCC(C)C)[C@H](C(=O)O)CN2S(=O)(=O)c2ccc(C)cc2)cc1OC`, the Activity is 91.1%.

For `CCS[C@@H]1C[C@@H](c2ccc3c(c2)OCO3)N(S(=O)(=O)c2ccc(C)cc2)C[C@H]1C(=O)O`, the Activity was determined as 91.5%.

In the case of `CCS[C@@H]1C[C@@H](c2ccc(OC)cc2)N(S(=O)(=O)c2ccccc2)C[C@H]1C(=O)O`, the Activity stood at 89.9%.

As for `COc1ccc([C@@H]2C[C@@H](SCCC(C)C)[C@H](C(=O)O)CN2S(=O)(=O)c2ccc(C)cc2)cc1`, the Activity amounted to 90%.

In the case of `COc1ccc([C@@H]2CC=C(C(C)=O)CN2S(=O)(=O)c2ccccc2C)cc1`, the Activity came to 77.3%.

Regarding `COc1ccc([C@@H]2C[C@@H](SCc3ccc(C(C)(C)C)cc3)[C@H](C(=O)O)CN2S(=O)(=O)c2ccc(C)cc2)cc1OC`, the Activity amounted to 78.9%.

As to `Cc1ccc([C@@H]2CC=C(C(=O)O)[C@H](c3cccc(F)c3)N2S(=O)(=O)c2ccc(C)cc2)cc1`, the Activity was 77.3%.

Regarding `Cc1ccc(S(=O)(=O)N2C[C@@H](C(=O)O)[C@H](SCCC(C)C)C[C@H]2c2ccccc2F)cc1`, the Activity came to 58.4%.

Consider `CCc1ccc([C@@H]2CC=C(C(=O)O)[C@H](c3ccc(Cl)cc3)N2S(=O)(=O)c2ccc(C)cc2)cc1`, for which the Activity worked out at 89.8%.

With `COc1cc([C@@H]2CC=C(C(C)=O)CN2S(=O)(=O)c2ccc(C)cc2)cc(OC)c1OC`, the Activity was 92.3%.

In the case of `COc1cccc([C@@H]2CC=C(C(=O)O)[C@H](c3cccc(Br)c3)N2S(=O)(=O)c2ccc(C)cc2)c1`, the Activity is 55.3%.

With `CCCCCS[C@@H]1C[C@@H](c2ccc(OC)cc2)N(S(=O)(=O)c2ccc(C)cc2)C[C@H]1C(=O)O`, the Activity stood at 86.7%.

For the molecule `COc1ccc([C@@H]2C[C@@H](SCC(C)C)[C@H](C(=O)O)CN2S(=O)(=O)c2ccc(Cl)cc2)cc1`, the Activity was 75.6%.

Consider `Cc1ccc(S(=O)(=O)N2[C@@H](c3ccc(F)cc3)C(C(=O)O)=CC[C@H]2c2ccc(Cl)cc2)cc1`, for which the Activity is 62%.

Regarding `Cc1ccccc1S(=O)(=O)N1[C@@H](c2ccc(Br)cc2)C(C(=O)O)=CC[C@H]1c1ccc(Cl)cc1`, the Activity amounted to 86.6%.

In the case of `COc1ccc([C@@H]2CC=C(C(=O)O)[C@H](c3ccc(Br)cc3)N2S(=O)(=O)c2ccc(C)cc2)cc1OC`, the Activity was 74%.

As to `C=CCS[C@@H]1C[C@@H](c2ccc(C)cc2)N(S(=O)(=O)c2ccc(C)cc2)C[C@H]1C(=O)O`, the Activity stood at 94.1%.

On to `CCCCCCS[C@@H]1C[C@@H](c2cc(OC)c(OC)c(OC)c2)N(S(=O)(=O)c2ccc(C)cc2)C[C@H]1C(=O)O`, for which the Activity is 93.6%.

In the case of `Cc1ccc([C@H]2C(C(=O)O)=CC[C@@H](c3cccc(C)c3)N2S(=O)(=O)c2ccc(C)cc2)cc1`, the Activity turned out to be 82.4%.

Turning to `Cc1cccc([C@H]2C(C(=O)O)=CC[C@@H](c3ccccc3)N2S(C)(=O)=O)c1`, the Activity is 68.1%.

Regarding `Cc1ccc(S(=O)(=O)N2[C@@H](c3cccc(Br)c3)C(C(=O)O)=CC[C@H]2c2ccccc2F)cc1`, the Activity amounted to 71.2%.

In the case of `Cc1ccc(S(=O)(=O)N2[C@@H](c3ccc(C(C)(C)C)cc3)C(C(=O)O)=CC[C@H]2c2ccc3c(c2)OCO3)cc1`, the Activity stood at 87.2%.

For the molecule `CCCS[C@@H]1C[C@@H](c2ccc(OC)cc2)N(S(=O)(=O)c2ccc(C)cc2)C[C@H]1C(=O)O`, the Activity is 88.9%.

Take `CCc1ccc([C@@H]2CC=C(C(=O)O)[C@H](c3cccc(C)c3)N2S(=O)(=O)c2ccc(C)cc2)cc1`: the Activity was 60.5%.

As for `Cc1ccc(S(=O)(=O)N2[C@@H](c3ccc(C(C)(C)C)cc3)C(C(=O)O)=CC[C@H]2c2ccccc2)cc1`, the Activity worked out at 75.2%.

On to `Cc1ccc(S(=O)(=O)N2C[C@@H](C(=O)O)[C@H](SCc3ccccc3)C[C@H]2c2ccccc2)cc1`, for which the Activity was 92.1%.

Consider `Cc1ccc(S(=O)(=O)N2[C@@H](c3ccc(C(C)(C)C)cc3)C(C(=O)O)=CC[C@H]2c2ccc(C(C)C)cc2)cc1`, for which the Activity was 88.3%.
